{
  "source": "paper PMC12406198",
  "about": "“Decadentate Acyclic Chelators for Lanthanum Radiopharmaceuticals” (Journal of Medicinal Chemistry, 2025)",
  "key": {"[1]": {"experiment": "Stability constants of La^3+ complexes by pH potentiometry", "format": "physicochemical", "conditions": "−log[La^3+]free for [L] = 10 μM and [La^3+] = 1 μM at pH 7.4 and 25 °C; from literature constants", "description": "The stability constants of the La^3+ complexes were determined using pH potentiometry (I = 0.15 NaCl). A significant amount of the metal ion is not complexed by the TPADAC^4– ligand at the beginning of the titration at pH 1.7 (∼20%), which allows for stability constant determination using potentiometry. In the case of TPAEN^4– the amount of free La^3+ was small (∼4%), but the stability constants could be determined by fitting the titration data using both 1:1 and 1:2 (TPAEN^4–:La^3+) stoichiometries (Figure S1, Supporting Information). The TPADAC^4– ligand also forms complexes with 1:1 and 1:2 stoichiometries (Figure S2, Supporting Information).\nThe thermodynamic stability of the complexes at physiologically relevant pH was assessed by calculating pLa values, defined as −log[La^3+]free for [L] = 10 μM and [La^3+] = 1 μM at pH 7.4 and 25 °C following the recommendation of Raymond. This is a result of the high stability constants (log K LaL) that characterize the formation of these complexes, as well as the relatively low basicity of these ligands. Indeed, cyclohexyl derivatives TPADAC^4– and CHXOCTAPA^4– display considerably higher basicity than the ethyl analogues, as indicated by the Σ log K i ^H (i = 1–5) values shown in Table . Similarly, DTPA and DO3A derivatives are characterized by rather high basicities, which results in relatively low pLa values.\nThe pH-potentiometric titrations were carried out with a Methrohm 785 DMP titrator using a Metrohm-6.0233.100 combined electrode. The titrated solutions (5.000 mL) were thermostated at 25 °C and stirred and kept under inert gas atmosphere (N2) to avoid the effect of CO2. The pH-calibration of the electrode was performed using KH-phthalate (pH = 4.005) and borax (pH = 9.177) buffers. The concentrations of the ligand stock solutions were determined by pH-potentiometric titration. The protonation constants of the TPAEN^4– (in the pH range of 2.19–12.00 a total of 213 data pairs by titrating a 2.72 mM a ligand solution) and TPADAC^4– (in the pH range of 1.88–11.85 a total of 208 data pairs by titrating a 2.32 mM ligand solution), the stability and protonation constants of the complexes formed with La^3+ and the formation constants of their dinuclear complexes were determined by pH-potentiometric titration. The metal-to-ligand concentration ratios were 1:1 and 2:1. For the 1:1 ratio a total of 240 data pairs were recorded for a H4TPAEN concentration of 2.29 mM in the pH range of 1.77–11.86, while a total of 222 data pairs were collected in the pH range 1.72–11.85 for a 2.72 mM solution of H4TPADAC. For the 2:1 ratio we collected 259 data pairs for a 2.31 mM solution of H4TPAEN in the pH range of 1.73–11.82, and 259 data pairs for a 2.71 mM concentration of H4TPADAC in the pH range of 1.70–11.85. The calculation of [H^+] from the measured pH values was performed with the use of the method proposed by Irving et al. by titrating a 0.01 M HCl solution (I = 0.15 M NaCl) with a standardized NaOH solution. The differences between the measured and calculated pH values were used to obtain the [H^+] concentrations from the pH-data obtained in the titrations. The ionic product of water was determined from the same experiment in the pH range 11.25–11.85. The protonation and stability constants were calculated from the titration data with the PSEQUAD program. The quality of the fits was assessed with the fitting parameter (FP) calculated by PSEQUAD, which is defined as 2 FP=∑i=1n(Vi,calc−Vi,meas)^2/n−k"}, "[2]": {"conditions": "literature value, cited from earlier work"}, "[3]": {"experiment": "Ligand protonation constants by pH-potentiometric titration", "format": "physicochemical", "conditions": "sum of literature protonation constants of related ligands"}, "[4]": {"conditions": "0.15 M NaCl; ref footnote a; cited from earlier work"}},
  "note": "Where two headings read alike, the source gives them in different places.",
  "data": [
    {"smiles": "O=C(O)CN(CCN(CC(=O)O)Cc1cccc(C(=O)O)n1)Cc1cccc(C(=O)O)n1", "note": "[OCTAPA^4–, 6,6′-((ethane-1,2-diylbis((carboxymethyl)azanediyl))bis(methylene))dipicolinic acid]", "values": [
      {"measurement": "pLa", "setting": "[1]", "result": 19.7},
      {"measurement": "log K 1 ^H", "setting": "[2]; ref footnote a", "result": 8.52},
      {"measurement": "log K 2 ^H", "setting": "[2]; ref footnote a", "result": 5.40},
      {"measurement": "log K 3 ^H", "setting": "[2]; ref footnote a", "result": 3.65},
      {"measurement": "log K 4 ^H", "setting": "[2]; ref footnote a", "result": 2.97},
      {"measurement": "log K 5 ^H", "setting": "[2]; ref footnote a", "result": 1.66},
      {"measurement": "log K 1 ^H", "setting": "[2]; ref footnote b", "result": 8.58},
      {"measurement": "log K 2 ^H", "setting": "[2]; ref footnote b", "result": 5.43},
      {"measurement": "log K 3 ^H", "setting": "[2]; ref footnote b", "result": 3.75},
      {"measurement": "log K 4 ^H", "setting": "[2]; ref footnote b", "result": 3.08},
      {"measurement": "log K 5 ^H", "setting": "[2]; ref footnote b", "result": 2.21},
      {"measurement": "log K 6 ^H", "setting": "[2]; ref footnote b", "result": "1.61 ^b"},
      {"measurement": "Σ log K i ^H (i = 1–5)", "setting": "[3]", "result": 22.20},
      {"measurement": "log K LaL", "setting": "[4]", "result": 19.92}
    ]}
  ]
}
